Values of other authors as cited in patent US20260144771A1, “Use of Triheptanoin Oil for Primary-Specific Pyruvate Dehydrogenase Complex (PDC) Deficiency” (University of Pittsburgh - Of the Commonwealth System of …, priority 2022, published 2026).

Experiments:
[1] = subjects with other mitochondrial disorders such as MELAS
[2] = human, in vivo
PDC = PDC (Homo sapiens, UniProt P10515); conditions: read-out: Ki for end-product inhibition of PDC
[3] = subjects with FAO disorders
[4] = a case of pyruvate carboxylase deficiency
[5] = system: PDC and 2-oxoglutarate dehydrogenase activities; conditions: chronic epilepsy mouse model

SMILES: O=C(O)C(Cl)Cl [DCA, dichloroacetate]
- neuropathy [1]: associated with toxic neuropathy

SMILES: Cc1ncc(C[n+]2csc(CCO)c2C)c(N)n1 [Thiamine, thiamine]
- adverse side-effects [2]: has not been reported to have adverse side-effects

SMILES: CC(=O)SCCNC(=O)CCNC(=O)[C@H](O)C(C)(C)COP(=O)(O)OP(=O)(O)OC[C@H]1O[C@@H](n2cnc3c(N)ncnc32)[C@H](O)[C@@H]1OP(=O)(O)O [acetyl-CoA]
- Ki (PDC): 5 to 10 µM

SMILES: CCC(=O)SCCNC(=O)CCNC(=O)[C@H](O)C(C)(C)COP(=O)(O)OP(=O)(O)OC[C@H]1O[C@@H](n2cnc3c(N)ncnc32)[C@H](O)[C@@H]1OP(=O)(O)O [propionyl-CoA]
- Ki (PDC): 3000 to 4000 µM

SMILES: CCCCCCC(=O)OCC(COC(=O)CCCCCC)OC(=O)CCCCCC [triheptanoin]
- most commonly reported side effect: GI distress, share of cases: ≥ 10 % of cases
- biochemical and physical outcomes before and after treatment [3]: significant improvement in cardiomyopathy and decreased frequency and severity of rhabdomyolysis
- biochemical outcomes [4]: rapid and significant improvement of biochemical outcomes
- effect on PDC and 2-oxoglutarate dehydrogenase activities [5]: prevented reduction
- incorporation of 13C derived from 13C-glucose in TCA cycle intermediates [5]: partially corrected the reduced incorporation
